Data taken from patent US9272047B2, “Use of biological surfactant as anti-inflammatory agent and tissue preservative solution” (Shaperon Inc., priority 2007, dated 2016).
“Also recorded” adds a separate entry of the source.

Experiments:
[1] = test system: ischemia-reperfusion renal injury; experiment: Ischemia-reperfusion renal injury model, organ preservative solution additive; type: in vivo, Sprague-Dawley rat; settings: 0.5 mg/ml in HTK solution
Experimental: The effect of sodium glycocholate to inflammatory response and renal function in an ischemia-reperfusion renal injury model, was evaluated. Five Sprague-Dawley (SD) male rats of 6 weeks age were used per each group, and foods and waters were not supplied to all the rats from 1 day before the experiment. The rats were anesthetized by the administration of 1 mg avertin (tribromoethanol/amyl hydrate)/100 g rat to the abdomen of the rats, and then laparotomized. All the blood flow to a left kidney was blocked by clamping the aorta and vena cava using vascular clamps. Before injecting the organ preservative solution, a vein of the left kidney was penetrated to minimize physical damage of the kidney due to the preservative solution pressure. Then, after histidine-tyroptophan-ketoglutarate (HTK) or a mixture solution of HTK and 0.5 mg/ml of sodium glycocholate was injected, at 4 ml/rat, into the vein, the damaged part of the vein was sutured by using 10-0 suture. After 30 min maintenance of the above state, the vascular clamps were removed and the laparotomized part was sutured. […] The concentration of IL-6 in the serum was measured by a enzyme-linked immunosorbent assay, and the concentrations of blood urea nitrogen (BUN), creatinine (Cre) and aspartate aminotransferase (AST) in the plasma were measured by an automated analyzer.

dendritic cells [2] = experiment: Cytotoxicity to dendritic cells (7AAD, FACS); type: cell-based, mouse
Experimental: The cytotoxicity of sodium glycocholate to the CHO cells, dendritic cells, T cells which were used in the above Examples was assayed. FACS analysis was performed after staining with 7AAD. First, sodium glycocholate was kept in vitro for 1 hour at 37° C., and then mixed with cells. CHO cells or dendritic cells were incubated for 14 hours at 37° C., and T cells which were mixed with 14 hour-incubated dendritic cells, were incubated for 4 days. Then, each cell was stained with 7AAD and cell analysis were carried out by using a flow cytometer.

dendritic cells [3] = experiment: In vitro proinflammatory cytokine generation by E. coli LPS, dendritic cells (ELISA); type: cell-based, mouse; settings: LPS stimulation
Experimental: In order to assay the effect of sodium glycocholate on the generation of proinflammatory cytokines induced by E. coli LPS, dendritic cells were prepared in the same way as Example 3, and macrophages were separated from the abdomen of C57BL/6 mouse. Thereafter, sodium glycocholate and LPS were reacted in vitro for 1 hour at 37° C., and then mixed with the cells. Each cell was stimulated for 14 hours at 37° C., and then supernatant fluid was separated.
The concentrations of TNF-α and interleukin-12p40 in the separated supernatant fluid was measured by an enzyme-linked immunoabsorbent assay (ELISA).
Each group was treated and assayed at least twice, and the results were statistically analyzed through t-test. The results were p<0.05 compared with the experimental groups treated by only LPS.

Q: Which ischemia-reperfusion renal injury [1] does the source give for C[C@H](CCC(=O)NCC(=O)[O-])[C@H]1CC[C@H]2[C@@H]3[C@H](O)C[C@@H]4C[C@H](O)CC[C@]4(C)[C@H]3C[C@H](O)[C@]12C.[Na+] [sodium glycocholate] here?
A: The ischemia-reperfusion renal injury was “inhibited”.

Q: And the cytotoxicity (dendritic cells [2]; 1 mg/ml)?
A: The cytotoxicity was “no significant cytotoxicity; also recorded: dose not have cytotoxicity”.

Q: What about the “7AAD(+) increase compared with the negative control group” value (dendritic cells [2]; 14 hours) of the same compound?
A: Its value is 2-4%.

Q: What about the “inhibition of generation of TNF-α” value (dendritic cells [3]; 0.5 mg/ml) of the same compound?
A: Its value is 70.2±2.3%.

Q: And the “inhibition of generation of interleukine-12p40” value (dendritic cells [3]; 0.5 mg/ml)?
A: Its value is 4.7±3.1%.

Q: And the “inhibition of generation of TNF-α” value (dendritic cells [3]; 1 mg/ml)?
A: Its value is 101.0±0.2%.

Q: And the “inhibition of generation of interleukine-12p40” value (dendritic cells [3]; 1 mg/ml)?
A: Its value is 106.6±1.3%.
